According to patent US20260166029A1, “METHODS AND SYSTEMS FOR TREATING DISEASE USING AN ATR/CHK1 SIGNALING PATHWAY INHIBITOR” (Acrivon Therapeutics, Inc., priority 2022, published 2026):
Where two headings read alike, the source gives them in different places.

Columns and labels:
[1] = tested on: Ovarian, primary HGS; conditions: trial 2, 46 multi-center, 8-country study; cited from earlier work
[2] = tested on: Anal, SCC; conditions: cited from earlier work
[3] = tested on: SW780; test: Cell Titer Glo 2.0 viability, prexasertib alone or with gemcitabine, three days (Example 11); type: cell-based; conditions: Homo sapiens, 72 h, gemcitabine 0.53 nM
Procedure: (§1) The present Example provides experimental evidence that treatment with gemcitabine sensitizes human cancer cell lines to treatment with prexasertib. A panel of human cancer cell lines were treated with various concentrations of prexasertib (0.17, 0.51, 1.5, 4.6, 13.7, 31.2, 123.5, 370.4, 1111, 3333, and 10000 nM) alone or in combination with various low dose concentrations of gemcitabine (0.53 and 2.7 nM). The panel of cell lines included ovarian, endometrial, bladder, breast, and prostate cancer cell lines. Two ovarian cancer cell lines (OVCAR3 and OV90) were used to generate acquired prexasertib resistant cells. For both cell lines, the parental cells (OVCAR3-P and OV90-P) and acquired prexasertib resistant cells (OVCAR3-R and OV90-R) were tested. Additionally, the panel included three cell lines that are naïve resistant to prexasertib (SW780, T47D, and PC3). After three days of treatment, cell viability relative to DMSO control was assessed using Cell Titer Glo 2.0 (Promega).
(§2) To determine whether gemcitabine and prexasertib acts synergistically, additively, or potentially antagonistically, the panel of human cancer cell lines were treated with various concentrations of prexasertib (0.17, 0.51, 1.5, 4.6, 13.7, 31.2, 123.5, 370.4, 1111, 3333, and 10000 nM) in combination with various concentrations of gemcitabine (1, 3, 13, 67, 333, 1667, 8333 nM). After three days treatment, cell viability relative to DMSO control was assessed using Cell Titer Glo 2.0 (Promega). Drug combination effect was evaluated using SynergyFinder 2.0, see Ianevski et al., Nucleic Acids Res., gkaa216 (2020), and is presented in Table 15 as a Bliss synergy score for each cell line. Bliss synergy scores greater than 10 are indicative of a synergistic effect between prexasertib and gemcitabine, while scores between 10 and −10 are indicative of an additive effect and scores less than −10 are indicative of an antagonistic effect. […] Taken together, the results of this Example support use of a combination of prexasertib and gemcitabine (e.g., low doses of gemcitabine) for treatment of predicted non-responders to prexasertib treatment.

[4] = tested on: OVCAR3-R; test: as above; type: cell-based; conditions: Homo sapiens, 72 h
Procedure: as §1, §2

[5] = tested on: A2780; test: Cell viability, sensitivity to prexasertib (Example 1); type: cell-based, human; conditions: A2780 cell line
Procedure: (§3) Predicted response to prexasertib was compared to experimentally measured sensitivity to prexasertib. […] EC50 values of less than or equal to 1 μM were considered to be actual responders, while values of greater than 1 μM were considered to be actual non-responders.

[6] = tested on: OVCAR3; test: as above; type: cell-based, human; conditions: OVCAR3 cell line
Procedure: as §3

[7] = tested on: T47D; test: as above; type: cell-based, human; conditions: T47D cell line
Procedure: as §3

[8] = tested on: DU145; test: as above; type: cell-based, human; conditions: DU145 cell line
Procedure: as §3

[9] = tested on: CAOV3; test: as above; type: cell-based, human; conditions: CAOV3 cell line
Procedure: as §3

[10] = tested on: Kuramochi; test: as above; type: cell-based, human; conditions: Kuramochi cell line
Procedure: as §3

[11] = tested on: MCF7; test: as above; type: cell-based, human; conditions: MCF7 cell line
Procedure: as §3

[12] = tested on: U1752; test: as above; type: cell-based, human; conditions: U1752 cell line
Procedure: as §3

[13] = tested on: BT549; test: as above; type: cell-based, human; conditions: BT549 cell line
Procedure: as §3

[14] = tested on: A549; test: as above; type: cell-based, human; conditions: A549 cell line
Procedure: as §3

[15] = tested on: U2020; test: as above; type: cell-based, human; conditions: U2020 cell line
Procedure: as §3

[16] = tested on: PC3; test: as above; type: cell-based, human; conditions: PC3 cell line
Procedure: as §3

[17] = tested on: SCLC; conditions: cited from earlier work
[18] = based on measured sensitivity (EC50)
[19] = Homo sapiens, reduction in cell viability by 50%

IC50 ([3]; read-out: Prexasertib Absolute IC50): 0.3 nM
IC50 ([3]; read-out: Prexasertib Relative IC50): 0.06 nM
IC50 ([4]; gemcitabine 0.53 nM, read-out: Prexasertib Absolute IC50): 106 nM
IC50 ([4]; gemcitabine 0.53 nM, read-out: Prexasertib Relative IC50): 30 nM
IC50 ([4]; gemcitabine 2.7 nM, read-out: Prexasertib Absolute IC50): 6.2 nM
IC50 ([4]; gemcitabine 2.7 nM, read-out: Prexasertib Relative IC50): 4 nM
EC50 [5, 19]: > 10000 nM
EC50 ([6]; Homo sapiens, OVCAR-3, reduction in cell viability by 50%): 19 nM
EC50 [7, 19]: > 10000 nM
EC50 ([8]; Homo sapiens, DU-145, reduction in cell viability by 50%): > 10000 nM
EC50 [11, 19]: > 10000 nM
EC50 ([13]; Homo sapiens, BT-549, reduction in cell viability by 50%): 21 nM
EC50 [14, 19]: > 10000 nM
EC50 ([16]; Homo sapiens, PC-3, reduction in cell viability by 50%): > 10000 nM
Compound: COc1cccc(OCCCN)c1-c1cc(Nc2cnc(C#N)cn2)n[nH]1 [prexasertib, 5-(5-(2-(3-aminopropoxy)-6-methoxyphenyl)-1H-pyrazol-3-ylamino)pyrazine-2-carbonitrile]
ORR in trials [1]: 19% (trial 2^)
ORR in trials [2]: 15%
Actual response status [5, 18]: NR (values of greater than 1 μM were considered to be actual non-responders)
Actual response status [6, 18]: R (EC50 values of less than or equal to 1 μM were considered to be actual responders)
Actual response status [7, 18]: NR (values of greater than 1 μM were considered to be actual non-responders)
Actual response status [8, 18]: NR (values of greater than 1 μM were considered to be actual non-responders)
Actual response status [9, 18]: R (EC50 values of less than or equal to 1 μM were considered to be actual responders)
EC50 ([9]; Homo sapiens, Caov-3, reduction in cell viability by 50%): 17 nM
EC50 [10, 19]: 24 nM
Actual response status [10, 18]: R (EC50 values of less than or equal to 1 μM were considered to be actual responders)
Actual response status [11, 18]: NR (values of greater than 1 μM were considered to be actual non-responders)
EC50 [12, 19]: > 10000 nM
Actual response status [12, 18]: NR (values of greater than 1 μM were considered to be actual non-responders)
Actual response status [13, 18]: R (EC50 values of less than or equal to 1 μM were considered to be actual responders)
Actual response status [14, 18]: NR (values of greater than 1 μM were considered to be actual non-responders)
EC50 [15, 19]: 7 nM
Actual response status [15, 18]: R (EC50 values of less than or equal to 1 μM were considered to be actual responders)
Actual response status [16, 18]: NR (values of greater than 1 μM were considered to be actual non-responders)
ORR in trials ([17]; platinum resistant): 0% (platinum
ORR in trials ([17]; platinum sensitive): 5% (platinum
